In patent US12091392B2, “Compounds, compositions and methods” (Denali Therapeutics Inc., priority 2019, dated 2024):

System: ATF4 Nano Luciferase reporter (ATF4 translation / ISR pathway activation)
Assay: ATF4 Nano Luciferase reporter integrated stress response (ISR) assay in H4 ATF4-NLuc (clone 17) cells
Assay type: cell-based
Conditions: Homo sapiens, 0.5 h, compounds added for 30 minutes at 37° C., then 50 μm sodium arsenite for 6 additional hours, luminescence readout
From the text: Cellular stress leads to activation of the integrated stress response pathway through one of four eukaryotic initiation factor 2α kinases and halts global translation, while allowing for the translation of select transcripts like ATF4 (activating transcription factor 4) that are important for the response to cellular stress. During normal conditions, small open reading frames (ORFs) in the 5′ UTR of ATF4 occupy the ribosome and prevent translation of the coding sequence of ATF4. During stress conditions however, the ribosome scans past these upstream ORFs and preferentially begins translation at the coding sequence of ATF4. In this way, the translation, and thus protein level of ATF4 is a readout of ISR pathway activation. Thus, a fusion of the uORFs and the beginning of the coding sequence of ATF to a common cellular reporter like nano-luciferase allows for a sensitive and high-throughput readout of ISR pathway activity.
Certain compounds provided herein were tested in the following assay. The ATF4 Nano Luciferase reporter was constructed by fusing the human full length 5′ untranslated region (5′-UTR) and a small portion of the coding sequence of the ATF4 gene upstream of the Nano Luciferase (NLuc) coding sequence lacking it's start codon. Specifically, nucleotides +1 through +364 (relative to the transcriptional start site) of ATF4 transcript variant 2 (NCBI NM_182810.2) flanked 5′ by EcoRI and 3′ by BamHI restriction enzyme sites were synthesized and cloned into the EcoRI/BamHI cloning sites of pLVX-EF1a-IRES-Puro lentivirus vector (Clontech). Lentiviral particles were produced with Lenti-X single shots (VSV-G, Clontech) according to the manufacturer's instructions and used to transduce a human H4 neuroglioma cell line (ATCC HTB-148). H4 cells were selected with 1.25 μg/mL Puromycin, and clonal cell lines generated by limiting dilution. This cell line was utilized to generate an integrated stress response (ISR) assay to evaluate the activity of ISR pathway inhibitors via luminescence readout. The H4 ATF4-NLuc (clone 17) cell line was plated at a density of 15,000 or 2,500 cells in 96-well or 384-well respectively in DMEM+10% fetal bovine serum. 24-hours later test compounds diluted in dimethyl sulfoxide (DMSO) were added for 30 minutes at 37° C., followed by ISR pathway activation with […] sodium arsenite aqueous solution for 6 additional hours. Nano Glo luciferase reagent (N1150, Promega) was added according to manufacturer instructions and the luminescence signal (corresponding to the level of ATF4 translation and thus ISR pathway activation) was read with a standard plate reader with luminescence detection capabilities. In Table 2, the activity of certain compounds disclosed herein as tested in the assay above is provided.

Row | SMILES | IC50
1 | O=C(COc1ccc(Cl)cc1)NC12CC(c3nnc(OCCOCC(F)(F)F)o3)(C1)C2 [Example 3] | 0.016 µM
2 | CN(CCOC(F)(F)F)c1nnc(C23CC(NC(=O)COc4ccc(C(F)(F)F)cc4)(C2)C3)o1 [Example 5] | 0.054 µM
3 | O=C(COc1ccc(C(F)(F)F)cc1)NC12CC(c3nnc(OCCOCC(F)(F)F)o3)(C1)C2 [Example 6, N-(3-(5-(2-(2,2,2-trifluoroethoxy)ethoxy)-1,3,4-oxadiazol-2-yl)bicyclo[1.1.1]pentan-1-yl)-2-(4-(trifluoromethyl)phenoxy)acetamide] | 0.021 µM
4 | O=C(COc1ccc(Br)cc1)NC12CC(c3nnc(OCCOCC(F)(F)F)o3)(C1)C2 [Example 7, 2-(4-bromophenoxy)-N-(3-(5-(2-(2,2,2-trifluoroethoxy)ethoxy)-1,3,4-oxadiazol-2-yl)bicyclo[1.1.1]pentan-1-yl)acetamide] | 0.016 µM
5 | O=C(COc1ccc(Cl)cc1)NC12CC(c3nnc(OCCOC(F)(F)F)o3)(C1)C2 [Example 1] | 0.062 µM
6 | O=C(COc1ccc(C(F)(F)F)cc1)NC12CC(c3nnc(NCCOC(F)(F)F)o3)(C1)C2 [Example 4] | 0.036 µM

More lines, in order of falling IC50, values ahead:

Row | IC50 | SMILES
7 | 0.023 µM | O=C(COc1ccc(Br)cc1)NC12CC(c3nnc(OCCOC(F)(F)F)o3)(C1)C2 [Example 8, 2-(4-bromophenoxy)-N-(3-(5-(2-(trifluoromethoxy)ethoxy)-1,3,4-oxadiazol-2-yl)bicyclo[1.1.1]pentan-1-yl)acetamide]
8 | 0.0061 µM | O=C(COc1ccc(C(F)(F)F)c(F)c1)NC12CC(c3nnc(OCCOCC(F)(F)F)o3)(C1)C2 [Example 9, 2-(3-fluoro-4-(trifluoromethyl)phenoxy)-N-(3-(5-(2-(2,2,2-trifluoroethoxy)ethoxy)-1,3,4-oxadiazol-2-yl)bicyclo[1.1.1]pentan-1-yl)acetamide]
9 | 0.0049 µM | O=C(COc1ccc(C(F)(F)F)cc1)NC12CC(c3nnc(OCCOC(F)(F)F)o3)(C1)C2 [Example 2]
